pIC50: −log10 of the molar value.
Tests used:
Colo205 = assay: Inhibition of cell proliferation (CellTiter-Glo or InCell analyzer), Colo205; type: cell-based; conditions: Homo sapiens, COLO 205, 72 h / 3 days, values given as IC50 category
Summary of the method: In one

NCI-H929 = assay: Inhibition of cell proliferation (CellTiter-Glo or InCell analyzer), NCI-H929; type: cell-based; conditions: Homo sapiens, 72 h / 3 days, values given as IC50 category
Summary of the method: In one

ALK = ALK (Homo sapiens, UniProt Q9UM73); assay: ALK enzyme assay (HTRF); type: biochemical; conditions: 0.25 nM ALK, 15.0 μM ATP, values given as pIC50 category
Summary of the method: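 Final compound range 0.00017 to 10 μM (twelve 1:3 dilutions). Kinase reaction with ATP and biotinylated synthetic peptide runs 120 min at 20° C, stopped with EDTA; phosphotyrosine detected by HTRF after 60 min. Inhibition referenced to DMSO (1%) and EDTA (0.1 M) controls, curve-fitted.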

[1] = biological target: T1, NIH-3T3 cells overexpressing human IR (Homo sapiens, UniProt P06213); assay: IR cellular autophosphorylation (DELFIA); type: cell-based; conditions: 2 h compound, insulin 3 ug/ml for 15 minutes, IC50 category
T1 construct: expressed in transfected cells; host or cells: NIH-3T3 (mouse fibroblasts)
Summary of the method: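 Receptor autophosphorylation measured by DELFIA, capturing IGF-1R or IRβ and detecting with europium anti-pTyr, reported as percent of IGF-1- or insulin-stimulated signal. Compounds (30 uM to 1.5 nM) added 2 h before ligand, then 15 min stimulation (IGF-1 30 ng/ml or insulin 3 ug/ml).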

T1 sequence (P06213 28-1382): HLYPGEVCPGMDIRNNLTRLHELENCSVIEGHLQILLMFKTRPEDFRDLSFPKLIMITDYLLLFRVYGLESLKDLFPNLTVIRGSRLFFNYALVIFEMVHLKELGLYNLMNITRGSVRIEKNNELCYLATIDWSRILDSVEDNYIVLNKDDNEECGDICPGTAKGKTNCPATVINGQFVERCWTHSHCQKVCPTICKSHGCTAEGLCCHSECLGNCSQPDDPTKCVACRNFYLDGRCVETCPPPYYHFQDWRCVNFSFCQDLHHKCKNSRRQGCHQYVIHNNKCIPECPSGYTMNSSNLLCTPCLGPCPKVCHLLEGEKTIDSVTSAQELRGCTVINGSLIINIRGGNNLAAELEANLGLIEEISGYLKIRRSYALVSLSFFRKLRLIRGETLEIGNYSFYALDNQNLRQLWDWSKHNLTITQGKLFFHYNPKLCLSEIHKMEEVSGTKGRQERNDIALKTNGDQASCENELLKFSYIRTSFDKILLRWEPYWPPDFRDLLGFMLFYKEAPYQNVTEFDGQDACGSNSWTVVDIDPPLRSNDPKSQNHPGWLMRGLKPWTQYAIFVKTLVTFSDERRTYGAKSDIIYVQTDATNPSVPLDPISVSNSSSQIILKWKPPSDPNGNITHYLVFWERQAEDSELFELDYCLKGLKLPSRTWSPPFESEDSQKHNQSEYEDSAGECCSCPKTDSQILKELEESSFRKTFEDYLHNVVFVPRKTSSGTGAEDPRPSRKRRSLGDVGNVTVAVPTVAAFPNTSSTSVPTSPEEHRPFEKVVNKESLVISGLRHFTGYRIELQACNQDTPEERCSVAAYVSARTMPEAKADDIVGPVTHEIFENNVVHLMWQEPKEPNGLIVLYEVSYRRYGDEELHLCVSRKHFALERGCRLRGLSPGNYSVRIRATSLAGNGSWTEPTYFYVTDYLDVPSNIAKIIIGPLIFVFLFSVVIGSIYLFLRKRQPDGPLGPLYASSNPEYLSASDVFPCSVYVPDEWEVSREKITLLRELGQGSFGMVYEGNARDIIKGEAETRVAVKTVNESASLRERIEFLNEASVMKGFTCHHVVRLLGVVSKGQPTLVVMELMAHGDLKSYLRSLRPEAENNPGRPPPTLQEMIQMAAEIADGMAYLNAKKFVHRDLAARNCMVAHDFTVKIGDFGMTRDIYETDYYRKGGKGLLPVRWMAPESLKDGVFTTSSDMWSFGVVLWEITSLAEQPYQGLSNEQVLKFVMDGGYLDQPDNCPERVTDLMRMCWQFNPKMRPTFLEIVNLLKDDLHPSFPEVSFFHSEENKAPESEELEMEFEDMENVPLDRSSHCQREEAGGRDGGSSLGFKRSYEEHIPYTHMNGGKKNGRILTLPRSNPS
ALK, sequence (Q9UM73 19-1620): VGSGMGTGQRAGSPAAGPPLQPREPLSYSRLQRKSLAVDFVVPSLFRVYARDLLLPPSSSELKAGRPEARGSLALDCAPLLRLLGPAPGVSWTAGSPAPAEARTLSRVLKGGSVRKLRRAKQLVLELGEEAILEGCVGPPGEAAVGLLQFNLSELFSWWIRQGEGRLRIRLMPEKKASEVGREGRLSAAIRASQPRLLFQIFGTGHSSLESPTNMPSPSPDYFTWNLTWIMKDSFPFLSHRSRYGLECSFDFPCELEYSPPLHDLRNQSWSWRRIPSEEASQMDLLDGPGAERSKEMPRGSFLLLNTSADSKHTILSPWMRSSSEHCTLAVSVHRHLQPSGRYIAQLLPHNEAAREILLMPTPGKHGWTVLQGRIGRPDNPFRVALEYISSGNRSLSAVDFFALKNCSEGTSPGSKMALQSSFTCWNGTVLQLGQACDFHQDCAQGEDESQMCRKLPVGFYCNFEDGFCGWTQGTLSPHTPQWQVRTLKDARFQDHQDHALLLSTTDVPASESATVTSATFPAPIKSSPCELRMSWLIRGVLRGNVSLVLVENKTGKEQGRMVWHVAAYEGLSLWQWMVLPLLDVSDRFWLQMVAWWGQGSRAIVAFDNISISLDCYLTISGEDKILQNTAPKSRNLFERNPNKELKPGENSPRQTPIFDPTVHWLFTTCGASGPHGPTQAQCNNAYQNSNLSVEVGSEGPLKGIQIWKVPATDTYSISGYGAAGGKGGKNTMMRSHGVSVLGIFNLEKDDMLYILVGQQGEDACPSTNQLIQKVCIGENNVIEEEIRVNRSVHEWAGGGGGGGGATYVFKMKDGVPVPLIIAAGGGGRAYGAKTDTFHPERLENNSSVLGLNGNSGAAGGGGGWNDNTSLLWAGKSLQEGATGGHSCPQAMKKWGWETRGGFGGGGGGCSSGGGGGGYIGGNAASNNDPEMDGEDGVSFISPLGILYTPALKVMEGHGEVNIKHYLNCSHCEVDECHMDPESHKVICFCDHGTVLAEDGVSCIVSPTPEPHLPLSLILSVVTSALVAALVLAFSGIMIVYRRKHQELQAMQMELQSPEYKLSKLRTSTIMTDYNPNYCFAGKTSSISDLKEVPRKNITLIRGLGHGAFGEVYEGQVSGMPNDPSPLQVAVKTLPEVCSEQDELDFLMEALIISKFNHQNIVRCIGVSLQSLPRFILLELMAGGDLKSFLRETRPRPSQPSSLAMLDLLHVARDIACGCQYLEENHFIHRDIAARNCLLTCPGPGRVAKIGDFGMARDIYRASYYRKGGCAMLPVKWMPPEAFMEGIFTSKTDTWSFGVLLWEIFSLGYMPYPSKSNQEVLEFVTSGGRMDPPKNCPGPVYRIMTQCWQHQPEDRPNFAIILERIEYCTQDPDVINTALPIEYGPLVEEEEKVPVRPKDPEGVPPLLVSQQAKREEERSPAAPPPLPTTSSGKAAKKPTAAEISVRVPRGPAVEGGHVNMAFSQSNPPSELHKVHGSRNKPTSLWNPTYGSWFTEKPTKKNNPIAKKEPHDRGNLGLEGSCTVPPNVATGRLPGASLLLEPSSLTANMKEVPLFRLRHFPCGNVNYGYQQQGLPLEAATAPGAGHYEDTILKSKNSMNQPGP

Row | Structure (SMILES) | pIC50 (Colo205) | pIC50 (NCI-H929) | pIC50 (ALK) | pIC50 [1]
1 | CCC(C)N1CCc2cc(OC)c(Nc3nc(Nc4cccc(F)c4C(=O)NC)c4cc[nH]c4n3)cc2C1 (stereo not drawn) [Example 238, 2-fluoro-N-methyl-6-[(2-{[6-(methyloxy)-2-(1-methylpropyl)-1,2,3,4-tetrahydro-7-isoquinolinyl]amino}-1H-pyrrolo[2,3-d]pyrimidin-4-yl)amino]benzamide] | < 6.00 | 6.00 to 6.60 | 8.40 to 8.90 | 6.30 to 7.00
2 | CNC(=O)c1c(F)cc(F)cc1Nc1nc(Nc2cc3c(cc2OC)CCCN3C(=O)CN(C)C)nc2[nH]ccc12 [Example 179, 2-[(2-{[1-(N,N-dimethylglycyl)-6-(methyloxy)-1,2,3,4-tetrahydro-7-quinolinyl]amino}-1H-pyrrolo[2,3-d]pyrimidin-4-yl)amino]-4,6-difluoro-N-methylbenzamide] | > 6.60 | > 6.60 | 9.00 to 9.60 | > 7.00
3 | CCNC(=O)c1c(F)cc(F)cc1Nc1nc(Nc2cc3c(cc2OC)CCCN3C(=O)CN(C)C)nc2[nH]ccc12 [Example 180, 2-[(2-{[1-(N,N-dimethylglycyl)-6-(methyloxy)-1,2,3,4-tetrahydro-7-quinolinyl]amino}-1H-pyrrolo[2,3-d]pyrimidin-4-yl)amino]-N-ethyl-4,6-difluorobenzamide] | 6.00 to 6.60 | 6.00 to 6.60 | 9.00 to 9.60 | > 7.00
4 | COc1cc(N2CCCN(S(C)(=O)=O)CC2)ccc1Nc1nc(Nc2cccc(F)c2C(N)=O)c2cc[nH]c2n1 [Example 207, 2-fluoro-6-{[2-({2-(methyloxy)-4-[4-(methylsulfonyl)hexahydro-1H-1,4-diazepin-1-yl]phenyl}amino)-1H-pyrrolo[2,3-d]pyrimidin-4-yl]amino}benzamide] | 6.00 to 6.60 | 6.00 to 6.60 | 8.40 to 8.90 | < 6.30
5 | COc1cc2c(cc1Nc1nc(Nc3cccc(F)c3C(N)=O)c3cc[nH]c3n1)N(C(=O)CCN1CCN(C(C)C)CC1)CC2 [Example 188, 2-fluoro-6-[(2-{[1-{3-[4-(1-methylethyl)-1-piperazinyl]propanoyl}-5-(methyloxy)-2,3-dihydro-1H-indol-6-yl]amino}-1H-pyrrolo[2,3-d]pyrimidin-4-yl)amino]benzamide] | 6.00 to 6.60 | 6.00 to 6.60 | 6.70 to 8.30 | < 6.30
6 | COc1cc2c(cc1Nc1nc(Nc3cccc(F)c3C(N)=O)c3cc[nH]c3n1)N(C(=O)[C@@H]1CCCN1C)CC2 [Example 147, 2-fluoro-6-[(2-{[5-(methyloxy)-1-(1-methyl-L-prolyl)-2,3-dihydro-1H-indol-6-yl]amino}-1H-pyrrolo[2,3-d]pyrimidin-4-yl)amino]benzamide] | 6.00 to 6.60 | > 6.60 | 6.70 to 8.30 | 6.30 to 7.00
7 | CNC(=O)c1c(F)cccc1Nc1nc(Nc2cc(N(C)C(=O)CN(C)C)ccc2OC)nc2[nH]ccc12 [Example 242, 2-[(2-{[5-[(N,N-dimethylglycyl)(methyl)amino]-2-(methyloxy)phenyl]amino}-1H-pyrrolo[2,3-d]pyrimidin-4-yl)amino]-6-fluoro-N-methylbenzamide] | < 6.00 | < 6.00 | 6.70 to 8.30 | > 7.00
8 | COc1cc2c(cc1Nc1nc(Nc3cccc(F)c3C(N)=O)c3cc[nH]c3n1)N(CCN(C)C)CC2 [Example 117, 2-[(2-{[1-[2-(dimethylamino)ethyl]-5-(methyloxy)-2,3-dihydro-1H-indol-6-yl]amino}-1H-pyrrolo[2,3-d]pyrimidin-4-yl)amino]-6-fluorobenzamide] | < 6.00 | 6.00 to 6.60 | 6.70 to 8.30 | < 6.30
9 | CCCN1CCC(N2CCc3cc(OC)c(Nc4nc(Nc5cccc(F)c5C(N)=O)c5cc[nH]c5n4)cc3C2)CC1 [Example 122, 2-fluoro-6-[(2-{[6-(methyloxy)-2-(1-propyl-4-piperidinyl)-1,2,3,4-tetrahydro-7-isoquinolinyl]amino}-1H-pyrrolo[2,3-d]pyrimidin-4-yl)amino]benzamide] | < 6.00 | > 6.60 | 6.70 to 8.30 | > 7.00
10 | COc1cc2c(cc1Nc1nc(Nc3cccc(F)c3C(N)=O)c3cc[nH]c3n1)CN(C(=O)CCN(C)C)CC2 [Example 230, 2-[(2-{[2-(N,N-dimethyl-β-alanyl)-6-(methyloxy)-1,2,3,4-tetrahydro-7-isoquinolinyl]amino}-1H-pyrrolo[2,3-d]pyrimidin-4-yl)amino]-6-fluorobenzamide] | < 6.00 | 6.00 to 6.60 | 6.70 to 8.30 | 6.30 to 7.00
11 | CNC(=O)c1c(F)cccc1Nc1nc(Nc2cc3c(cc2OC)CCN3C(=O)CN(C)C)nc2[nH]cc(C)c12 [Example 258, 2-[(2-{[1-(N,N-dimethylglycyl)-5-(methyloxy)-2,3-dihydro-1H-indol-6-yl]amino}-5-methyl-1H-pyrrolo[2,3-d]pyrimidin-4-yl)amino]-6-fluoro-N-methylbenzamide] | 6.00 to 6.60 | 6.00 to 6.60 | 9.00 to 9.60 | 6.30 to 7.00
12 | COc1cc2c(cc1Nc1nc(Nc3cccc(F)c3C(N)=O)c3cc[nH]c3n1)N(C(=O)CCN(C)C)CCC2 [Example 214, 2-[(2-{[1-(N,N-dimethyl-β-alanyl)-6-(methyloxy)-1,2,3,4-tetrahydro-7-quinolinyl]amino}-1H-pyrrolo[2,3-d]pyrimidin-4-yl)amino]-6-fluorobenzamide] | 6.00 to 6.60 | > 6.60 | 6.70 to 8.30 | 6.30 to 7.00
13 | CCCN(CCC)[C@@H](C)C(=O)N1CCc2cc(OC)c(Nc3nc(Nc4cccc(F)c4C(N)=O)c4cc[nH]c4n3)cc21 [Example 192, 2-[(2-{[1-(N,N-dipropyl-L-alanyl)-5-(methyloxy)-2,3-dihydro-1H-indol-6-yl]amino}-1H-pyrrolo[2,3-d]pyrimidin-4-yl)amino]-6-fluorobenzamide] | 6.00 to 6.60 | > 6.60 | 6.70 to 8.30 | > 7.00
14 | COc1cc2c(cc1Nc1nc(Nc3cc(F)cc(F)c3C(N)=O)c3cc[nH]c3n1)N(C(=O)CN1CCCC1)CCC2 [Example 219, 2,4-difluoro-6-[(2-{[6-(methyloxy)-1-(1-pyrrolidinylacetyl)-1,2,3,4-tetrahydro-7-quinolinyl]amino}-1H-pyrrolo[2,3-d]pyrimidin-4-yl)amino]benzamide] | > 6.60 | > 6.60 | 9.00 to 9.60 | > 7.00
15 | COc1cc2c(cc1Nc1nc(Nc3cc(F)cc(F)c3C(N)=O)c3cc[nH]c3n1)N(C(=O)CN(C)C)CC2 [Example 189, 2-[(2-{[1-(N,N-dimethylglycyl)-5-(methyloxy)-2,3-dihydro-1H-indol-6-yl]amino}-1H-pyrrolo[2,3-d]pyrimidin-4-yl)amino]-4,6-difluorobenzamide] | > 6.60 | > 6.60 | 8.40 to 8.90 | > 7.00
16 | CNC(=O)c1c(F)cccc1Nc1nc(Nc2cc3c(cc2OC)CCN3C(C)=O)nc2[nH]ccc12 [Example 135, 2-[(2-{[1-acetyl-5-(methyloxy)-2,3-dihydro-1H-indol-6-yl]amino}-1H-pyrrolo[2,3-d]pyrimidin-4-yl)amino]-6-fluoro-N-methylbenzamide] | < 6.00 | 6.00 to 6.60 | 8.40 to 8.90 | < 6.30
17 | COc1cc2c(cc1Nc1nc(Nc3cccc4c3C(=O)NC4)c3cc[nH]c3n1)N(C(=O)CN(C)C)CC2 [Example 200, 7-[(2-{[1-(N,N-dimethylglycyl)-5-(methyloxy)-2,3-dihydro-1H-indol-6-yl]amino}-1H-pyrrolo[2,3-d]pyrimidin-4-yl)amino]-2,3-dihydro-1H-isoindol-1-one] | > 6.60 | > 6.60 | 8.40 to 8.90 | > 7.00
18 | COc1cc(N2CCN(C(C)C)CC2)ccc1Nc1nc(Nc2cc(F)cc(F)c2C(N)=O)c2cc[nH]c2n1 [Example 89, 2,4-difluoro-6-[(2-{[4-[4-(1-methylethyl)-1-piperazinyl]-2-(methyloxy)phenyl]amino}-1H-pyrrolo[2,3-d]pyrimidin-4-yl)amino]benzamide] | 6.00 to 6.60 | > 6.60 | 9.00 to 9.60 | > 7.00
19 | COc1cc2c(cc1Nc1nc(Nc3cccc(F)c3C(N)=O)c3cc[nH]c3n1)N(C(=O)CN(C)OC)CC2 [Example 144, 2-fluoro-6-[(2-{[1-[N-methyl-N-(methyloxy)glycyl]-5-(methyloxy)-2,3-dihydro-1H-indol-6-yl]amino}-1H-pyrrolo[2,3-d]pyrimidin-4-yl)amino]benzamide] | < 6.00 | 6.00 to 6.60 | 6.70 to 8.30 | < 6.30
20 | COc1cc2c(cc1Nc1nc(Nc3cccc(F)c3C(N)=O)c3cc[nH]c3n1)N(C(=O)CN1CCC1)CC2 [Example 143, 2-[(2-{[1-(1-azetidinylacetyl)-5-(methyloxy)-2,3-dihydro-1H-indol-6-yl]amino}-1H-pyrrolo[2,3-d]pyrimidin-4-yl)amino]-6-fluorobenzamide] | 6.00 to 6.60 | > 6.60 | 8.40 to 8.90 | 6.30 to 7.00
21 | CCCNC(=O)c1c(F)cc(F)cc1Nc1nc(Nc2cc3c(cc2OC)CCN3C(=O)CN(C)C)nc2[nH]ccc12 [Example 152, 2-[(2-{[1-(N,N-dimethylglycyl)-5-(methyloxy)-2,3-dihydro-1H-indol-6-yl]amino}-1H-pyrrolo[2,3-d]pyrimidin-4-yl)amino]-4,6-difluoro-N-propylbenzamide] | 6.00 to 6.60 | 6.00 to 6.60 | 9.00 to 9.60 | 6.30 to 7.00
